In US20230157998A1, “Methods of Inhibiting SARS-CoV-2 Replication and Treating Corona Virus Disease 2019” (Pfizer Inc., priority 2020, published 2023):
Converted amounts (≈) assume the structure as drawn. Like-named read-outs stand apart in the source and are kept apart here.

Experiments:
[1] = Physical stability on storage of the 6 mg/mL formulation (F11); type: physicochemical; details: 80 mg/mL SBE-β-CD, […] v/v ethanol, 3.4% v/v PEG400, 6 mg/mL PF-00835231
Procedure: To further assess the robustness of formulations prepared in Formulation Example F10, a single formulation was selected to scale-up for use in a stability study.
An additional 20 mL solution of 300 mg/mL SBE-β-CD was similarly prepared.
14.29 mL of the citrate buffer and SBE-β-CD stock solution was then added to two separate 20 mL scintillation vials. […] The drug product solutions were mixed overnight and filtered through a 0.2 um PVDF filter. 0.5 mL aliquots of drug product solutions were then filled into 4 mL vials, stoppered, crimped, and placed in temperature-controlled chambers at −20° C., 4° C., and 25° C.
Furthermore, if the solutions were supersaturated at room temperature, exposure to refrigerated or frozen storage temperatures should induce precipitation and cause a decrease in assay. […] (top), 4° C. (center), and 25° C. (bottom). For each condition, data from two separate samples is plotted and is shown with a linear fit to the data.

OC43-CoV 3CLpro = OC43-CoV 3CLpro (Human coronavirus OC43, UniProt P0C6X6); assay: FRET protease activity assay; type: biochemical; details: Beta-CoV; [E]T 52 ± 1 nM
Human Chymotrypsin = assay: Protease panel; type: biochemical
[2] = system: SARS-CoV-2 Washington strain 1; assay: Cytopathic effect (CPE) assay in VeroE6-enACE2 cells; type: cell-based
SARS-CoV-2 USA-WA1/2020 = assay: In vitro drug efficacy in A549+ACE2 cells; type: cell-based
SARS-CoV-2 [3] = assay: Efficacious target concentration and human dose projection; details: across a range of in vitro antiviral assays
[4] = 48 h
[5] = Ethanol […] v/v, 2 mg/mL at preparation
[6] = ~1 mg/mL, 5% v/v co-solvent, pH 4 or 5, with or without 15 mg/mL SBE-β-CD, up to 7 days, all samples
VeroE6-enACE2 cells = details: African green monkey
[7] = system: SARS-CoV-2 (USA_WA1/2020); details: for synergy score: isobologram level 0.9
SARS-CoV-2 [8] = details: for Bliss Synergy Score / HSA Synergy Score / Loewe Synergy Score: with Remdesivir; for classification of the combination effect: with remdesivir
cytochrome P450 enzymes = details: human, microsomes
CYP3A4/5 = details: microsomes
[9] = rat, dog, monkey, in vivo
[10] = pH 7.4
physchem [11] = details: 4 °C, thermodynamic from solid
physchem [12] = details: 25 °C, pH 5, aqueous buffer, thermodynamic from solid, PF-00835321 Saturated Solubility
physchem [13] = details: organic solvent or mixture, thermodynamic from solid
in vitro = details: human
SARS-CoV-2 [14] = assay: microbe, parasite or virus in culture
[15] = Saturated solubility in co-solvent/co-solvent/water mixtures (F3); details: 25 °C, pH 5, aqueous buffer, thermodynamic from solid, PF-00835321 Saturated Solubility, pH 5, 5 mM citrate, PEG400 0.75, Ethanol […] v/v
[16] = Saturated solubility in CD/water mixtures with polymeric excipients (F6); details: 25° C., pH 5, HP-β-CD 15 mg/mL
[17] = Assay of CD/co-solvent/water formulations of different compositions over 5 days (F8); details: all formulations of Formulation Table F11
[18] = Patient Sera 2, individual value, n 1

Sequence of OC43-CoV 3CLpro (P0C6X6 3247-3549): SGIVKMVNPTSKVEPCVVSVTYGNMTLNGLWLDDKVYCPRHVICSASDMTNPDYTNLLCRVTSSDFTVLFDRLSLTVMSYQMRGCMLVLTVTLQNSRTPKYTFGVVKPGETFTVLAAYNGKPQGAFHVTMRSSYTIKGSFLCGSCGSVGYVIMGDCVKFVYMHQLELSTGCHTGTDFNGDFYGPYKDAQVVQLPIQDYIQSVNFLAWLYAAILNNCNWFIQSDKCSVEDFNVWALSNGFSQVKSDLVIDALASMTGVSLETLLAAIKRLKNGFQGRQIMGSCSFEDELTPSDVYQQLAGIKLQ

With `COc1cccc2[nH]c(C(=O)N[C@@H](CC(C)C)C(=O)N[C@@H](C[C@@H]3CCNC3=O)C(=O)CO)cc12` [PF-00835231] the “assay values on storage at 4° C. and 25° C. (FIG. 13)” value [1] was “consistent over the 30 day period tested”, the “assay values on storage at −20° C. (FIG. 13)” value [1] was “consistent over the 7 day period tested” and the Ki (OC43-CoV 3CLpro) was 0.5 ± 0.1 nM. The IC50 (Human Chymotrypsin) was over 100000 nM, the EC50 ([2]; Severe acute respiratory syndrome coronavirus 2, VeroE6-enACE2 cells, in the presence of the P-gp inhibitor, quoted for the EC50/EC90 difference, read-out: EC50) was 0.48 µM and the EC90 ([2]; Severe acute respiratory syndrome coronavirus 2, Vero-cell lines, P-gp inhibitor added) was 480 to 1600 nM. For the same compound, the “difference between EC50 and EC90” value ([2]; both Vero cell types) was 2-3 fold, the EC50 ([2]; read-out: EC50 μM GeoMean) was 0.23 µM and the EC50 (SARS-CoV-2 USA-WA1/2020; Severe acute respiratory syndrome coronavirus 2, A549-ACE2, 24 h) was 221 nM. It also gave an EC90 (SARS-CoV-2 USA-WA1/2020; Severe acute respiratory syndrome coronavirus 2, A549-ACE2, 24 h, read-out: EC90) of 734 nM, an EC50 (SARS-CoV-2 USA-WA1/2020; Severe acute respiratory syndrome coronavirus 2, A549-ACE2, 48 h) of 158 nM and an EC90 (SARS-CoV-2 USA-WA1/2020; Severe acute respiratory syndrome coronavirus 2, A549-ACE2, 48 h, read-out: EC90) of 439 nM. For the same compound, the EC90 (SARS-CoV-2 USA-WA1/2020; Severe acute respiratory syndrome coronavirus 2, A549-ACE2, dose response assay in human lung carcinoma cells, read-out: average EC90) was 440 nM, the “Hill coefficient (m), slope of the dose response curve” value (SARS-CoV-2 [3]) was 3 and the “Solid Form at 4° C.” value (pH 3) was “No Change-Hydrate”. For the same compound, the “Solid Form at 4° C.” value (pH 5) was “No Change-Hydrate”, the “Solid Form at 4° C.” value (pH 7) was “No Change-Hydrate” and the “PF-00835321 Solubility” value [4] was over 45000 µg/mL. The “PF-00835231 Assay” value ([5]; HP-β-CD 0 mg/mL, order: PF-00835231, Ethanol, Buffer) was 0.4 mg/mL, the “PF-00835231 Assay” value ([5]; HP-β-CD 15 mg/mL, order: PF-00835231, Ethanol, HP-β-CD with buffer) was 1.9 mg/mL and the “PF-00835231 Assay” value ([5]; HP-β-CD 15 mg/mL, order: PF-00835231, HP-β-CD with buffer, Ethanol) was 0.4 mg/mL. For the same compound, the “decrease in chromatographic purity at 22° C.” value [6] was “less than 0.5%”, the CC50 (VeroE6-enACE2 cells) was over 100000 nM and the “cytotoxicity of the combinations” value [7] was “no significant cytotoxicity”. For the same compound, the synergy score ([7]; combination with azithromycin) was 3.76, the synergy score ([7]; combination with remdesivir) was 5.1 and the “cytotoxicity in virus infected host cells” value (SARS-CoV-2 [8]; all the combinations with remdesivir tested) was “no noticeable cytotoxicity”. For the same compound, the “Bliss Synergy Score” value (SARS-CoV-2 [8]; Patient Sera 1, average, n 2) was 1.60, the “HSA Synergy Score” value (SARS-CoV-2 [8]; Patient Sera 1, average, n 2) was 2.51 and the “Loewe Synergy Score” value (SARS-CoV-2 [8]; Patient Sera 1, average, n 2) was 1.60. The “Bliss Synergy Score” value (SARS-CoV-2 [8]; [18]) was “(0.366)”, the “HSA Synergy Score” value (SARS-CoV-2 [8]; [18]) was “(0.830)” and the “Loewe Synergy Score” value (SARS-CoV-2 [8]; [18]) was “(−0.0776)”. The “classification of the combination effect” value (SARS-CoV-2 [8]; patient #1 sera, 2 independent experiments) was “synergy”, the “classification of the combination effect” value (SARS-CoV-2 [8]; sera from patient #2, single experiment) was “additivity” and the “unbound CIint” value (cytochrome P450 enzymes) was 14 µL/min/mg. For the same compound, the “time dependent inhibition of CYP3A4/5” value (CYP3A4/5) was “weak signal”, the “eliminated unchanged in the urine” value [9] was “approximately 10%” and the SFLogD7.4 [10] was 1.7. For the same compound, the solubility at 48 h (physchem [11]; pH 3, aqueous buffer) was 100 µg/mL (≈ 212 µM), the solubility at 48 h (physchem [11]; pH 5, aqueous buffer) was 100 µg/mL (≈ 212 µM) and the solubility at 48 h (physchem [11]; pH 7, aqueous buffer) was 100 µg/mL (≈ 212 µM). The solubility at 48 h (physchem [12]) was 200 µg/mL (≈ 423 µM), the solubility (physchem [13]) was at least 200000 µg/mL and the CC50 (in vitro) was over 10000 nM. For the same compound, the EC90 (SARS-CoV-2 [14]; Severe acute respiratory syndrome coronavirus 2, HeLa-ACE2, HELA-ACE2, remdesivir concentration 0) was 433 nM, the EC90 (SARS-CoV-2 [14]; Severe acute respiratory syndrome coronavirus 2, HeLa-ACE2, HELA-ACE2, remdesivir concentration 48 (nm in FIG. 5A legend)) was 123 nM and the EC90 (SARS-CoV-2 [14]; Severe acute respiratory syndrome coronavirus 2, HeLa-ACE2, HELA-ACE2, remdesivir concentration 95 (nm in FIG. 5A legend)) was 54.5 nM. The EC90 (SARS-CoV-2 [14]; Severe acute respiratory syndrome coronavirus 2, HeLa-ACE2, HELA-ACE2, remdesivir concentration 190 (nm in FIG. 5A legend)) was under 0.78 nM, the solubility at 48 h [15] was 100 µg/mL (≈ 212 µM) and the “PF-00835231 Assay” value ([16]; HPMC 1 mg/mL) was 0.4 mg/mL. The “PF-00835231 Assay” value ([16]; PEG400 […]) was 0.4 mg/mL, the “PF-00835231 Assay” value ([16]; PEG3350 […]) was 0.4 mg/mL and the “PF-00835231 Assay” value ([16]; PVP […]) was 0.4 mg/mL. The “PF-00835231 Assay” value ([16]; no polymeric excipient) was 0.4 mg/mL and the “appearance of solutions after 5 days mixing at 25° C.” value [17] was “remained clear”.
